Results from US8889591B2, “Herbicidal compositions comprising 4-amino-3-chloro-5-fluoro-6-(4-chloro-2-fluoro-3-methoxyphenyl)pyridine-2-carboxylic acid or a derivative thereof and bromobutide, daimuron, oxaziclomefone or pyributicarb” (Dow Agrosciences LLC, priority 2012, dated 2014).

Columns and labels:
[1] = test system: BRAPP; assay: Postemergence foliar-applied greenhouse weed control, direct-seeded rice system; type: in vivo
From the text: (§1) Seeds or nutlets of the desired test plant species were planted in a soil matrix prepared by mixing a loam or sandy loam soil (e.g., 28.6 percent silt, 18.8 percent clay, and 52.6 percent sand, with a pH of about 5.8 and an organic matter content of about 1.8 percent) and calcareous grit in an 80 to 20 ratio. The soil matrix was contained in plastic pots with a volume of 1 quart and a surface area of 83.6 square centimeters (cm^2). When required to ensure good germination and healthy plants, a fungicide treatment and/or other chemical or physical treatment was applied. The plants were grown for 8-22 days in a greenhouse with an approximate 14 h photoperiod which was maintained at about 29° C. during the day and 26° C. during the night. Nutrients (Peters Excel® 15-5-15 5-Ca 2-Mg and iron chelate) were applied in the irrigation solution as needed and water was added on a regular basis. Supplemental lighting was provided with overhead metal halide 1000-Watt lamps as necessary. The plants were employed for testing when they reached the first through fourth true leaf stage.
(§2) Treatments consisted of the acid or esters of 4-amino-3-chloro-5-fluoro-6-(4-chloro-2-fluoro-3-methoxy-phenyl)pyridine-2-carboxylic acid (Compound A), each formulated as an SC (suspension concentrate), and various herbicidal components alone and in combination. Forms of compound A were applied on an acid equivalent basis.
(§3) Other herbicidal components were applied on an active ingredient basis and included diamuron formulated as an EC (emulsifiable concentrate) and oxaziclomefone (technical grade material).
(§4) Treatment requirements were calculated based upon the rates being tested, the concentration of active ingredient or acid equivalent in the formulation, and a 12 mL application volume at a rate of 187 L/ha.
(§5) For treatments comprised of formulated compounds, measured amounts of compounds were placed individually in 25 mL glass vials and diluted in a volume of 1.25% (v/v) Agri-Dex® crop oil concentrated to obtain 12× stock solutions. […] Application solutions were prepared by adding an appropriate amount of each stock solution (e.g., 1 mL) and diluted to the appropriate final concentrations with the addition of 10 mL of an aqueous mixture of 1.25% (v/v) crop oil concentrate so that the final spray solutions contained 1.25+/−0.05% (v/v) crop oil concentrate.
(§6) For treatments comprised of technical compounds, weighed amounts can be placed individually in 25 mL glass vials and dissolved in a volume of 97:3 v/v acetone/DMSO to obtain 12× stock solutions. […] Application solutions can be prepared by adding an appropriate amount of each stock solution (e.g., 1 mL) and diluted to the appropriate final concentrations with the addition of 10 mL of an aqueous mixture of 1.5% (v/v) crop oil concentrate so that the final spray solutions contain 1.25% (v/v) crop oil concentrate. When technical materials are used, the concentrated stock solutions can be added to the spray solutions so that the final acetone and DMSO concentrations of the application solutions are 16.2% and 0.5%, respectively.
(§7) For treatments comprised of formulated and technical compounds, weighed amounts of the technical materials were placed individually in 25 mL glass vials and dissolved in a volume of 97:3 v/v acetone/DMSO to obtain 12× stock solutions, and measured amounts of the formulated compounds were placed individually in 25 mL glass vials and diluted in a volume of 1.5% (v/v) crop oil concentrate or water to obtain 12× stock solutions. […] Application solutions were prepared by adding an appropriate amount of each stock solution (e.g., 1 mL) and diluted to the appropriate final concentrations with the addition of an appropriate amount of an aqueous mixture of 1.5% (v/v) crop oil concentrate so that the final spray solutions contained 1.25% (v/v) crop oil concentrate. […]

[2] = test system: ECHCG; assay: as above; type: in vivo, Echinochloa crusgalli (L.) Beauv.
From the text: as §1, §2, §3, §4, §5, §6, §7

[3] = test system: ECHCO; assay: as above; type: in vivo, Echinochloa colona (L.) Link
From the text: as §1, §2, §3, §4, §5, §6, §7

[4] = test system: LEFCH; assay: as above; type: in vivo, Leptochloa chinensis (L.) Nees
From the text: as §1, §2, §3, §4, §5, §6, §7

[5] = test system: IPOHE; assay: as above; type: in vivo, Ipomoea hederacea Jacq.
From the text: as §1, §2, §3, §4, §5, §6, §7

[6] = test system: ECHOR; assay: In-water applied greenhouse weed control, transplanted paddy rice system; type: in vivo, Echinochloa oryzoides (Ard.) Fritsch; details: in-water application
Procedure: (§8) Weed seeds or nutlets of the desired test plant species were planted in puddled soil (mud) prepared by mixing a shredded, non-sterilized mineral soil (50.5 percent silt, 25.5 percent clay, and 24 percent sand, with a pH of about 7.6 and an organic matter content of about 2.9 percent) and water at a 1:1 volumetric ratio. The prepared mud was dispensed in 365 mL aliquots into 16-ounce (oz.) non-perforated plastic pots with a surface area of 86.59 square centimeters (cm^2) leaving a headspace of 3 centimeters (cm) in each pot. Mud was allowed to dry overnight prior to planting or transplanting. Rice seeds were planted in Sun Gro MetroMix® 306 planting mixture, which typically has a pH of 6.0 to 6.8 and an organic matter content of about 30 percent, in plastic plug trays. Seedlings at the second or third leaf stage of growth were transplanted into 840 mL of mud contained in 32-oz. non-perforated plastic pots with a surface area of 86.59 cm^2 4 days prior to herbicide application. The paddy was created by filling the headspace of the pots with 2.5 to 3 cm of water. When required to ensure good germination and healthy plants, a fungicide treatment and/or other chemical or physical treatment was applied. The plants were grown for 4-22 days in a greenhouse with an approximate 14 h photoperiod which was maintained at about 29° C. during the day and 26° C. during the night. Nutrients were added as Osmocote® (19:6:12, N:P:K+ minor nutrients) at 2 g per 16-oz. pot and 4 g per 32-oz. pot. Water was added on a regular basis to maintain the paddy flood, and supplemental lighting was provided with overhead metal halide 1000-Watt lamps as necessary. The plants were employed for testing when they reached the first through fourth true leaf stage.
(§9) Treatments consisted of the acid or esters of 4-amino-3-chloro-5-fluoro-6-(4-chloro-2-fluoro-3-methoxy-phenyl)pyridine-2-carboxylic acid (compound A) each formulated as an SC and various herbicidal components alone and in combination. Forms of compound A were applied on an acid equivalent basis.
(§10) Other herbicidal components were applied on an active ingredient basis and included daimuron formulated as an EC, bromobutide (technical grade material), and oxaziclomefone (technical grade material).
(§11) Treatment requirements for each compound or herbicidal component were calculated based upon the rates being tested, the concentration of active ingredient or acid equivalent in the formulation, an application volume of 2 mL per component per pot, and an application area of 86.59 cm^2 per pot.
(§12) For formulated compounds, a measured amount was placed in an individual 100 or 200 mL glass vial and was dissolved in a volume of 1.25% (v/v) Agri-Dex® crop oil concentrate to obtain application solutions.
(§13) For technical grade compounds, a weighed amount was placed in an individual 100 to 200 mL glass vial and was dissolved in a volume of acetone to obtain concentrated stock solutions. […] The concentrated stock solutions obtained were diluted with an equivalent volume of an aqueous mixture containing 2.5% (v/v) crop oil concentrate so that the final application solutions contained 1.25% (v/v) crop oil concentrate.
(§14) Applications were made by injecting, with a pipetter, appropriate amounts of the application solutions, individually and sequentially, into the aqueous layer of the paddy. Control plants were treated in the same manner with the solvent blank. Applications were made so that all treated plant material received the same concentrations of acetone and crop oil concentrate.
(§15) The treated plants and control plants were placed in a greenhouse as described above and water was added as needed to maintain a paddy flood. After approximately 3 weeks the condition of the test plants as compared with that of the untreated plants was determined visually and scored on a scale of 0 to 100 percent where 0 corresponds to no injury or growth inhibition and 100 corresponds to complete kill. […]

[7] = test system: FIMMI; assay: as above; type: in vivo, Fimbristylis miliacea (L.) Vahl; details: in-water application
Procedure: as §8, §9, §10, §11, §12, §13, §14, §15

[8] = test system: CYPIR; assay: Postemergence foliar-applied greenhouse weed control, direct-seeded rice system; type: in vivo, Cyperus iria L.; details: Oxaziclomefone 6.25 gai/ha alone
From the text: as §1, with “stage. […]” for “stage.”
as §4
(§16) For treatments comprised of formulated compounds, measured amounts of compounds were placed individually in 25 mL glass vials and diluted in a volume of 1.25% (v/v) Agri-Dex® crop oil concentrated to obtain 12× stock solutions. […]
(§17) For treatments comprised of formulated and technical compounds, weighed amounts of the technical materials were placed individually in 25 mL glass vials and dissolved in a volume of 97:3 v/v acetone/DMSO to obtain 12× stock solutions, and measured amounts of the formulated compounds were placed individually in 25 mL glass vials and diluted in a volume of 1.5% (v/v) crop oil concentrate or water to obtain 12× stock solutions. […]

[9] = test system: SCPJU; assay: as above; type: in vivo, Schoenoplectus juncoides (Roxb.) Palla; details: Oxaziclomefone 6.25 gai/ha alone
From the text: as §1, with “stage. […]” for “stage.”
as §4, §16, §17

[10] = test system: CYPRO; assay: In-water applied greenhouse weed control, transplanted paddy rice system; type: in vivo, Cyperus rotundus L.; details: in-water application
Procedure: as §8, §9, §10, §11, §12, §13, §14, §15

[11] = test system: ECHCG; assay: as above; type: in vivo, Echinochloa crusgalli (L.) Beauv.; details: in-water application; Oxaziclomafone 20 gai/ha alone
Procedure: Weed seeds or nutlets of the desired test plant species were planted in puddled soil (mud) prepared by mixing a shredded, non-sterilized mineral soil (50.5 percent silt, 25.5 percent clay, and 24 percent sand, with a pH of about 7.6 and an organic matter content of about 2.9 percent) and water at a 1:1 volumetric ratio. The prepared mud was dispensed in 365 mL aliquots into 16-ounce (oz.) non-perforated plastic pots with a surface area of 86.59 square centimeters (cm^2) leaving a headspace of 3 centimeters (cm) in each pot. Mud was allowed to dry overnight prior to planting or transplanting. Rice seeds were planted in Sun Gro MetroMix® 306 planting mixture, which typically has a pH of 6.0 to 6.8 and an organic matter content of about 30 percent, in plastic plug trays. Seedlings at the second or third leaf stage of growth were transplanted into 840 mL of mud contained in 32-oz. non-perforated plastic pots with a surface area of 86.59 cm^2 4 days prior to herbicide application. The paddy was created by filling the headspace of the pots with 2.5 to 3 cm of water. […]
as §11
For formulated compounds, a measured amount was placed in an individual 100 or 200 mL glass vial and was dissolved in a volume of 1.25% (v/v) Agri-Dex® crop oil concentrate to obtain application solutions. […]
as §15

[12] = Daimuron 100 gai/ha alone (Table 2)
[13] = Daimuron 200 gai/ha alone (Table 2)
[14] = Daimuron 400 gai/ha alone (Table 2)

## Cc1ccc(NC(=O)NC(C)(C)c2ccccc2)cc1 [Daimuron, N-(4-methylphenyl)-N′-(1-methyl-1-phenylethyl)urea]
[1]; Daimuron 100 gai/ha alone
  Visual Weed Control (%) - 20 DAA BRAPP Obs: 0%
[1]; [12]
  Visual Weed Control (%) - 20 DAA BRAPP Obs: 0%
[1]; Daimuron 200 gai/ha alone
  Visual Weed Control (%) - 20 DAA BRAPP Obs: 0%
[1]; [13]
  Visual Weed Control (%) - 20 DAA BRAPP Obs: 0%
[1]; Daimuron 400 gai/ha alone
  Visual Weed Control (%) - 20 DAA BRAPP Obs: 0%
[1]; [14]
  Visual Weed Control (%) - 20 DAA BRAPP Obs: 0%
[2]; Daimuron 100 gai/ha alone
  Visual Weed Control (%) - 20 DAA ECHCG Obs: 0%
[2]; [12]
  Visual Weed Control (%) - 20 DAA ECHCG Obs: 0%
[2]; Daimuron 200 gai/ha alone
  Visual Weed Control (%) - 20 DAA ECHCG Obs: 0%
[2]; [13]
  Visual Weed Control (%) - 20 DAA ECHCG Obs: 0%
[2]; Daimuron 400 gai/ha alone
  Visual Weed Control (%) - 20 DAA ECHCG Obs: 0%
[2]; [14]
  Visual Weed Control (%) - 20 DAA ECHCG Obs: 0%
[3]; Daimuron 100 gai/ha alone
  Visual Weed Control (%) - 20 DAA ECHCO Obs: 0%
[3]; [12]
  Visual Weed Control (%) - 20 DAA ECHCO Obs: 0%
[3]; Daimuron 200 gai/ha alone
  Visual Weed Control (%) - 20 DAA ECHCO Obs: 10%
[3]; [13]
  Visual Weed Control (%) - 20 DAA ECHCO Obs: 10%
[3]; Daimuron 400 gai/ha alone
  Visual Weed Control (%) - 20 DAA ECHCO Obs: 10%
[3]; [14]
  Visual Weed Control (%) - 20 DAA ECHCO Obs: 10%
[4]; Daimuron 100 gai/ha alone
  Visual Weed Control (%) - 20 DAA LEFCH Obs: 0%
[4]; Daimuron 200 gai/ha alone
  Visual Weed Control (%) - 20 DAA LEFCH Obs: 0%
[4]; [13]
  Visual Weed Control (%) - 20 DAA LEFCH Obs: 0%
[4]; Daimuron 400 gai/ha alone
  Visual Weed Control (%) - 20 DAA LEFCH Obs: 0%
[4]; [14]
  Visual Weed Control (%) - 20 DAA LEFCH Obs: 0%
[5]; Daimuron 100 gai/ha alone
  Visual Weed Control (%) - 20 DAA IPOHE Obs: 0%
[5]; [12]
  Visual Weed Control (%) - 20 DAA IPOHE Obs: 0%
[5]; Daimuron 200 gai/ha alone
  Visual Weed Control (%) - 20 DAA IPOHE Obs: 10%
[6]; Daimuron 200 gai/ha alone
  Visual Weed Control (%) - 21 DAA ECHOR Obs: 0%
[6]; Daimuron 400 gai/ha alone
  Visual Weed Control (%) - 21 DAA ECHOR Obs: 15%
[6]; Diamuron 400 gai/ha alone
  Visual Weed Control (%) - 20 DAA ECHOR Obs: 60%
[7]; Daimuron 200 gai/ha alone
  Visual Weed Control (%) - 21 DAA FIMMI Obs: 10%
[7]; Daimuron 400 gai/ha alone
  Visual Weed Control (%) - 21 DAA FIMMI Obs: 80%

## CC1=C(c2ccccc2)C(=O)N(C(C)(C)c2cc(Cl)cc(Cl)c2)CO1 [Oxaziclomefone, 3-[1-(3,5-dichlorophenyl)-1-methylethyl]-2,3-dihydro-6-methyl-5-phenyl-4H-1,3-oxazin-4-one]
[8]
  Visual Weed Control (%) - 22 DAA CYPIR Obs: 0%
[9]
  Visual Weed Control (%) - 22 DAA SCPJU Obs: 0%
[10]; Oxaziclomafone 20 gai/ha alone (Table 6)
  Visual Weed Control (%) - 21 DAA CYPRO Obs: 0%
[10]; Oxaziclomafone 20 gai/ha alone (Table 7)
  Visual Weed Control (%) - 21 DAA CYPRO Obs: 0%
[10]; Oxaziclomafone 40 gai/ha alone (Table 7)
  Visual Weed Control (%) - 21 DAA CYPRO Obs: 0%
[11]
  Visual Weed Control (%) - 21 DAA ECHCG Obs: 80%
